In patent publication US20190224166A1, “Compositions and Methods for Treating Muscle Loss” (Augusta University Research Institute, Inc., priority 2018, published 2019):

Test system: quadriceps muscle
Test: Proteomic analysis of quadriceps muscle of aged mice treated with 1-methyl-D-tryptophan (Table 1, TOPPGENE enrichment)
Assay type: in vivo
Description: Female mice 22 months of age were obtained from the National Institute on Aging and treated with saline (vehicle) or 1-methyl-D-tryptophan (1-MT, Sigma, 452483, lot#MKBZ1441V) at a low dose (10 mg/kg BW) or at a high dose (100 mg/kg BW). Mice were treated daily for 4 weeks. Treatments were administered i.p. with an injection volume of 0.2 ml following IACUC approved procedures. Mice were euthanized by CO2 overdose and muscles harvested for analysis. One quadriceps muscle was snap frozen for proteomics and the other quadriceps muscle fixed in buffered formalin for paraffin embedding and trichrome staining. The tibialis anterior was placed in PBS for amplex red assay.
The IDO inhibitor, 1-methyl-D-tryptophan, blocks kynurenine production and reduces levels of ROS in muscle.

Structure (SMILES): Cn1cc(C[C@@H](N)C(=O)O)c2ccccc21 [1MT]
- 1MT vs Control: UTP--glucose-1-phosphate uridylyltransferase (Q91ZJ5, GN = Ugp2): 0.9036
- 1MT vs Control: Trifunctional enzyme subunit beta, mitochondrial (Q99JY0, GN = Hadhb): 0.7
- 1MT vs Control: Aconitate hydratase, mitochondrial (Q99KI0, GN = Aco2): 0.8406
- 1MT vs Control: Electron transfer flavoprotein subunit alpha, mitochondrial (Q99LC5, GN = Etfa): 0.8462
- 1MT vs Control: O-acetyl-ADP-ribose deacetylase MACROD1 (Q922B1, GN = Macrod1): 0.9167
- 1MT vs Control: Nucleoside diphosphate kinase B (Q01768, GN = Nme2): 0.9242
- 1MT vs Control: Transitional endoplasmic reticulum ATPase (Q01853, GN = Vcp): 0.904
- 1MT vs Control: Ubiquitin-like modifier-activating enzyme 1 (Q02053, GN = Uba1): 0.5833
- 1MT vs Control: Voltage-dependent L-type calcium channel subunit alpha-1S (Q02789, GN = Cacna1s): 0.7143
- 1MT vs Control: ATP synthase subunit alpha, mitochondrial (Q03265, GN = Atp5a1): 0.6273
- 1MT vs Control: Corticosteroid-binding globulin (Q06770, GN = Serpina6): 0.3125
- 1MT vs Control: Short-chain specific acyl-CoA dehydrogenase, mitochondrial (Q07417, GN = Acads): 0.6
- 1MT vs Control: Protein-arginine deiminase type-2 (Q08642, GN = Padi2): 0.3438
- 1MT vs Control: Puromycin-sensitive aminopeptidase (Q11011, GN = Npepps): 0.5
- 1MT vs Control: 2-oxoglutarate dehydrogenase, mitochondrial (Q60597, GN = Ogdh): 0.4671
- 1MT vs Control: Voltage-dependent anion-selective channel protein 3 (Q60931, GN = Vdac3): 0.2609
- 1MT vs Control: Voltage-dependent anion-selective channel protein 1 (Q60932, GN = Vdac1): 0.3333
- 1MT vs Control: Peroxiredoxin-2 (Q61171, GN = Prdx2): 0.7895
- 1MT vs Control: Hydroxyacyl-coenzyme A dehydrogenase, mitochondrial (Q61425, GN = Hadh): 0.6364
- 1MT vs Control: Alpha-2-macroglobulin (Q61838, GN = A2m): 0.6316
- 1MT vs Control: Striated muscle-specific serine/threonine-protein kinase (Q62407, GN = Speg): 0.6667
- 1MT vs Control: 10 kDa heat shock protein, mitochondrial (Q64433, GN = Hspe1): 0.4
- 1MT vs Control: Glycerol-3-phosphate dehydrogenase, mitochondrial (Q64521, GN = Gpd2): 0.3077
- 1MT vs Control: Trifunctional purine biosynthetic protein adenosine-3 (Q64737, GN = Gart): 0.8
- 1MT vs Control (protein A2AUC9 Kelch-like protein 41, GN=Klhl41): 1.077
- 1MT vs Control (protein O08539 Myc box-dependent-interacting protein 1, GN=Bin1): 1.064
- 1MT vs Control (protein O70209 PDZ and LIM domain protein 3, GN=Pdlim3): 1.412
- 1MT vs Control (protein P04117 Fatty acid-binding protein, adipocyte, GN=Fabp4): 1.1
- 1MT vs Control (protein P05064 Fructose-bisphosphate aldolase A, GN=Aldoa): 1.096
- 1MT vs Control (protein P05132 cAMP-dependent protein kinase catalytic subunit alpha, GN=Prkaca): 1
- 1MT vs Control (protein P07309 Transthyretin, GN=Ttr): 2.5
- 1MT vs Control (protein P07310 Creatine kinase M-type, GN=Ckm): 1.182
- 1MT vs Control (protein P07758 Alpha-1-antitrypsin 1-1, GN=Serpina1a): 1.091
- 1MT vs Control (protein P08228 Superoxide dismutase [Cu—Zn], GN=Sod1): 1.273
- 1MT vs Control (protein P09103 Protein disulfide-isomerase, GN=P4hb): 1.077
- 1MT vs Control (protein P09411 Phosphoglycerate kinase 1, GN=Pgk1): 1.089
- 1MT vs Control (protein P10637 Microtubule-associated protein tau, GN=Mapt): 3
- 1MT vs Control (protein P10649 Glutathione S-transferase Mu 1, GN=Gstm1): 1.152
- 1MT vs Control (protein P13412 Troponin I, fast skeletal muscle, GN=Tnni2): 1.5
- 1MT vs Control (protein P13707 Glycerol-3-phosphate dehydrogenase [NAD(+)], cytoplasmic, GN=Gpd1): 1.072
- 1MT vs Control (protein P14231 Sodium/potassium-transporting ATPase subunit beta-2, GN=Atp1b2): 1
- 1MT vs Control (protein P15626 Glutathione S-transferase Mu 2, GN=Gstm2): 1.111
- 1MT vs Control (protein P16858 Glyceraldehyde-3-phosphate dehydrogenase, GN=Gapdh): 1.167
- 1MT vs Control (protein P17182 Alpha-enolase, GN=Eno1): 1.039
- 1MT vs Control (protein P17742 Peptidyl-prolyl cis-trans isomerase A, GN=Ppia): 1.176
- 1MT vs Control (protein P17751 Triosephosphate isomerase, GN=Tpi1): 1.136
- 1MT vs Control (protein P18826 Phosphorylase b kinase regulatory subunit alpha, skeletal muscle isoform, GN=Phka1): 1.143
- 1MT vs Control (protein P20029 78 kDa glucose-regulated protein, GN=Hspa5): 1.522
- 1MT vs Control (protein P21550 Beta-enolase, GN=Eno3): 1.063
- 1MT vs Control (protein P22599 Alpha-1-antitrypsin 1-2, GN=Serpina1b): 1.028
- 1MT vs Control (protein P23506 Protein-L-isoaspartate(D-aspartate) O-methyltransferase, GN=Pcmt1): 1
- 1MT vs Control (protein P23953 Carboxylesterase 1C, GN=Ces1c): 1.08
- 1MT vs Control (protein P26043 Radixin, GN=Rdx): 1.267
- 1MT vs Control (protein P26883 Peptidyl-prolyl cis-trans isomerase FKBP1A, GN=Fkbp1a): 1.5
- 1MT vs Control (protein P27546 Microtubule-associated protein 4, GN=Map4): 3
- 1MT vs Control (protein P28474 Alcohol dehydrogenase class-3, GN=Adh5): 1.176
- 1MT vs Control (protein P28654 Decorin, GN=Dcn): 1.36
- 1MT vs Control (protein P29699 Alpha-2-HS-glycoprotein, GN=Ahsg): 1.111
- 1MT vs Control (protein P31001 Desmin, GN=Des): 1.133
- 1MT vs Control (protein P45376 Aldose reductase, GN=Akr1b1): 1.064
- 1MT vs Control (protein P45591 Cofilin-2, GN=Cfl2): 1
- 1MT vs Control (protein P47791 Glutathione reductase, mitochondrial, GN=Gsr): 1.25
- 1MT vs Control (protein P47857 ATP-dependent 6-phosphofructokinase, muscle type, GN=Pfkm): 1.013
- 1MT vs Control (protein P50396 Rab GDP dissociation inhibitor alpha, GN=Gdi1): 1.1875
- 1MT vs Control (protein P51885 Lumican, GN=Lum): 1.231
- 1MT vs Control (protein P58252 Elongation factor 2, GN=Eef2): 1.092
- 1MT vs Control (protein P62631 Elongation factor 1-alpha 2, GN=Eef1a2): 1.256
- 1MT vs Control (protein P62908 40S ribosomal protein S3, GN=Rps3): 1
- 1MT vs Control (protein P63005 Platelet-activating factor acetylhydrolase IB subunit alpha, GN=Pafah1b1): 1.25
- 1MT vs Control (protein P63017 Heat shock cognate 71 kDa protein, GN=Hspa8): 1.016
- 1MT vs Control (protein P68134 Actin, alpha skeletal muscle, GN=Acta1): 1.126
- 1MT vs Control (protein P70296 Phosphatidylethanolamine-binding protein 1, GN=Pebp1): 1.024
- 1MT vs Control (protein P70402 Myosin-binding protein H, GN=Mybph): 1.156
- 1MT vs Control (protein P82349 Beta-sarcoglycan, GN=Sgcb): 1
- 1MT vs Control (protein P97384 Annexin A11, GN=Anxa11): 1.375
- 1MT vs Control (protein Q3TJD7 PDZ and LIM domain protein 7, GN=Pdlim7): 1.111
- 1MT vs Control (protein Q3TVI8 Pre-B-cell leukemia transcription factor-interacting protein 1, GN=Pbxip1): 1
- 1MT vs Control (protein Q3TXS7 26S proteasome non-ATPase regulatory subunit 1, GN=Psmd1): 1.333
- 1MT vs Control (protein Q3U0V1 Far upstream element-binding protein 2, GN=Khsrp): 1
- 1MT vs Control (protein Q3UZA1 CapZ-interacting protein, GN=Rcsd1): 1.2
- 1MT vs Control (protein Q5SX39 Myosin-4, GN=Myh4): 1.106
- 1MT vs Control (protein Q7TSH2 Phosphorylase b kinase regulatory subunit beta, GN=Phkb): 1.083
- 1MT vs Control (protein Q8BGQ7 Alanine--tRNA ligase, cytoplasmic, GN=Aars): 1.5
- 1MT vs Control (protein Q8BU85 Methionine-R-sulfoxide reductase B3, mitochondrial, GN=Msrb3): 2.5
- 1MT vs Control (protein Q8C7E7 Starch-binding domain-containing protein 1, GN=Stbd1): 1
- 1MT vs Control (protein Q8CGC7 Bifunctional glutamate/proline--tRNA ligase, GN=Eprs): 1.333
- 1MT vs Control (protein Q8CHP8 Phosphoglycolate phosphatase, GN=Pgp): 1
- 1MT vs Control (protein Q8CHS7 Dehydrogenase/reductase SDR family member 7C, GN=Dhrs7c): 2.667
- 1MT vs Control (protein Q8CHT0 Delta-1-pyrroline-5-carboxylate dehydrogenase, mitochondrial, GN=Aldh4a1): 1
- 1MT vs Control (protein Q8K4Z3 NAD(P)H-hydrate epimerase, GN=Apoa1bp): 1
- 1MT vs Control (protein Q8R1G2 Carboxymethylenebutenolidase homolog, GN=Cmbl): 1.235
- 1MT vs Control (protein Q8VCM7 Fibrinogen gamma chain, GN=Fgg): 1.25
- 1MT vs Control (protein Q8VHX6 Filamin-C, GN=Flnc): 1.059
- 1MT vs Control (protein Q9CPU0 Lactoylglutathione lyase, GN=Glo1): 1.095
- 1MT vs Control (protein Q9CZ30 Obg-like ATPase 1, GN=Ola1): 3.25
- 1MT vs Control (protein Q9D7X3 Dual specificity protein phosphatase 3, GN=Dusp3): 1.5
- 1MT vs Control (protein Q9D8N0 Elongation factor 1-gamma, GN=Eef1g): 1.1
- 1MT vs Control (protein Q9D172 ES1 protein homolog, mitochondrial, GN=D10Jhu81e): 1.2
- 1MT vs Control (protein Q9ESD7 Dysferlin, GN=Dysf): 3
- 1MT vs Control (protein Q9ET78 Junctophilin-2, GN=Jph2): 1.381
- 1MT vs Control (protein Q9ET80 Junctophilin-1, GN=Jph1): 1.143
- 1MT vs Control (protein Q9JKB3 Y-box-binding protein 3, GN=Ybx3): 1.333
- 1MT vs Control (protein Q9JKS4 LIM domain-binding protein 3, GN=Ldb3): 1.037
- 1MT vs Control (protein Q9QYG0 Protein NDRG2, GN=Ndrg2): 1.015
- 1MT vs Control (protein Q9R0Y5 Adenylate kinase isoenzyme 1, GN=Ak1): 1.133
- 1MT vs Control (protein Q9R062 Glycogenin-1, GN=Gyg1): 1.538
- 1MT vs Control (protein Q9WUZ7 SH3 domain-binding glutamic acid-rich protein, GN=Sh3bgr): 1.057
- 1MT vs Control (protein Q9Z1Z2 Serine-threonine kinase receptor-associated protein, GN=Strap): 1.5
- 1MT vs Control (protein Q9Z2U0 Proteasome subunit alpha type-7, GN=Psma7): 3
- 1MT vs Control (protein Q70KF4 Cardiomyopathy-associated protein 5, GN=Cmya5): 1
- 1MT vs Control (protein Q76MZ3 Serine/threonine-protein phosphatase 2A 65 kDa regulatory subunit A alpha isoform, GN=Ppp2r1a): 1.125
- 1MT vs Control (protein Q91VI7 Ribonuclease inhibitor, GN=Rnh1): 1.111
- 1MT vs Control (protein Q91YE8 Synaptopodin-2, GN=Synpo2): 1.077
- 1MT vs Control (protein Q99LX0 Protein deglycase DJ-1, GN=Park7): 1.194
- 1MT vs Control (protein Q99PR8 Heat shock protein beta-2, GN=Hspb2): 1.5
- 1MT vs Control (protein Q924M7 Mannose-6-phosphate isomerase, GN=Mpi): 1.111
- 1MT vs Control (protein Q04857 Collagen alpha-1(VI) chain, GN=Col6a1): 1.5
- 1MT vs Control (protein Q60864 Stress-induced-phosphoprotein 1, GN=Stip1): 1.167
- 1MT vs Control (protein Q61292 Laminin subunit beta-2, GN=Lamb2): 1
- 1MT vs Control (protein Q61584 Fragile X mental retardation syndrome-related protein 1, GN=Fxr1): 1
- 1MT vs Control (protein Q62234 Myomesin-1, GN=Myom1): 1.113
- 1MT vs Control (protein Q62446 Peptidyl-prolyl cis-trans isomerase FKBP3, GN=Fkbp3): 1.429
- 1MT vs Control (protein Q64105 Sepiapterin reductase, GN=Spr): 1.5
- 1MT vs Control (protein Q64727 Vinculin, GN=Vcl): 1.333
